Results as given in article PMC11589570, “Critical assessment of LC3/GABARAP ligands used for degrader development and ligandability of LC3/GABARAP binding pockets” (Nature Communications, 2024).
Values joined by “and” are separate entries in the source; they are usually repeats but may differ in a detail not shown here. Identical values can stand only once.

How the values were obtained:
Experiment in all cases: FP assay with Cy5-labelled p62 LIR tracer (protein titration and tracer displacement)
Details in all cases: replicates, listed as TH152
GABARAP = GABARAP (Homo sapiens, UniProt O95166); format: binding
Sequence of GABARAP (O95166 1-116): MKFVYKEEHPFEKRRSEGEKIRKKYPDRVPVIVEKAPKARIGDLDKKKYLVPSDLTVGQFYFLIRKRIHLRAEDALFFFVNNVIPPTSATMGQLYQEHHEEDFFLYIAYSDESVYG

GABARAPL1 = GABARAPL1 (Homo sapiens, UniProt Q9H0R8); format: binding
Sequence of GABARAPL1 (Q9H0R8 whole entry): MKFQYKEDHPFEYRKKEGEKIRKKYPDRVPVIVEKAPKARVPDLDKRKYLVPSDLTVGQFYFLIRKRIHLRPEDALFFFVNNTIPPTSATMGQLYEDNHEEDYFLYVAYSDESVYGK

LC3C = LC3C (Homo sapiens, UniProt Q9BXW4); format: binding
Sequence of LC3C (Q9BXW4 1-126): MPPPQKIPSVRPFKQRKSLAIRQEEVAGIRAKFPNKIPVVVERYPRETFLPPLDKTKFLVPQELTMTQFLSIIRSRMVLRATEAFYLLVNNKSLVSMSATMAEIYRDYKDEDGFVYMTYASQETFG

GABARAPL2 = GABARAPL2 (Homo sapiens, UniProt P60520)
Sequence of GABARAPL2 (P60520 whole entry): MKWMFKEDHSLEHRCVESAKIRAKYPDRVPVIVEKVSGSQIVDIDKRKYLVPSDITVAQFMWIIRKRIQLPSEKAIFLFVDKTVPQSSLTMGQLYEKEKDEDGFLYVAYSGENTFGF

CCCCCCC(Sc1nc(Cl)cc(Nc2nc(-c3ccc(C(=O)O)cc3)cs2)n1)C(=O)O (centres unmarked) [compound 21]
FP assay result (normalised FP signal) (GABARAP; log10 concentration [M] -3.5): 6.476 and 7.14 and 8.634 and 10.7929 | FP assay result (normalised FP signal) (GABARAP; log10 concentration [M] -4): 22.9141 and 19.9253 and 28.8917 and 24.7406 | FP assay result (normalised FP signal) (GABARAP; log10 concentration [M] -4.5): 50.1453 and 47.6546 and 52.4699 and 48.8169 | FP assay result (normalised FP signal) (GABARAP; log10 concentration [M] -5): 88.9996 and 85.5127 and 92.3205 and 91.9884 | FP assay result (normalised FP signal) (GABARAP; log10 concentration [M] -5.5): 94.6451 and 91.9884 and 100.623 and 97.7999 | FP assay result (normalised FP signal) (GABARAP; log10 concentration [M] -6): 98.298 and 99.6264 and 101.287 and 99.7924 | FP assay result (normalised FP signal) (GABARAP; log10 concentration [M] -6.5): 94.479 and 92.8186 and 96.6376 and 97.7999 | FP assay result (normalised FP signal) (GABARAP; log10 concentration [M] -7): 96.3055 and 97.7999 and 100.955 and 96.9697 | FP assay result (normalised FP signal) (GABARAP; log10 concentration [M] -7.5): 97.3018 (2×) and 101.453 and 101.785 | FP assay result (normalised FP signal) (GABARAP; log10 concentration [M] -8): 99.9585 and 97.966 and 101.619 and 100.457 | FP assay result (normalised FP signal) (GABARAP; log10 concentration [M] -8.5): 96.1395 and 97.7999 and 97.966 and 99.2943 | FP assay result (normalised FP signal) (GABARAPL1; log10 concentration [M] -3.5): 12.2578 and 12.5396 and 10.1444 and 7.186 | FP assay result (normalised FP signal) (GABARAPL1; log10 concentration [M] -4): 30.4333 and 31.4195 and 29.5879 and 26.0655 | FP assay result (normalised FP signal) (GABARAPL1; log10 concentration [M] -4.5): 65.2342 and 56.9215 and 57.9077 and 55.9352 | FP assay result (normalised FP signal) (GABARAPL1; log10 concentration [M] -5): 92.9905 and 91.2998 and 95.2448 and 93.4132 | FP assay result (normalised FP signal) (GABARAPL1; log10 concentration [M] -5.5): 96.2311 and 98.3445 and 98.9081 and 98.7672 | FP assay result (normalised FP signal) (GABARAPL1; log10 concentration [M] -6): 98.6263 and 98.7672 (2×) and 99.1899 | FP assay result (normalised FP signal) (GABARAPL1; log10 concentration [M] -6.5): 96.2311 and 93.5541 and 95.6675 and 93.2723 | FP assay result (normalised FP signal) (GABARAPL1; log10 concentration [M] -7): 99.049 and 98.3445 and 97.64 and 97.4991 | FP assay result (normalised FP signal) (GABARAPL1; log10 concentration [M] -7.5): 101.021 and 101.867 and 99.049 and 98.0627 | FP assay result (normalised FP signal) (GABARAPL1; log10 concentration [M] -8): 97.0764 and 96.0902 (2×) and 101.162 | FP assay result (normalised FP signal) (GABARAPL1; log10 concentration [M] -8.5): 95.6675 and 98.9081 and 96.9355 and 97.3582 | FP assay result (normalised FP signal) (LC3C; log10 concentration [M] -3.5): 19.6537 and 17.9691 and 15.5358 and 11.7922 | FP assay result (normalised FP signal) (LC3C; log10 concentration [M] -4): 50.5381 and 45.8587 and 48.6664 and 46.0459 | FP assay result (normalised FP signal) (LC3C; log10 concentration [M] -4.5): 71.5021 and 72.0636 and 76.3687 and 74.6841 | FP assay result (normalised FP signal) (LC3C; log10 concentration [M] -5): 93.0276 and 94.7122 and 94.8994 and 95.6481 | FP assay result (normalised FP signal) (LC3C; log10 concentration [M] -5.5): 93.7763 and 94.3379 and 97.5199 and 95.8353 | FP assay result (normalised FP signal) (LC3C; log10 concentration [M] -6): 96.0225 and 101.076 and 101.638 and 98.4558 | FP assay result (normalised FP signal) (LC3C; log10 concentration [M] -6.5): 90.0328 and 92.0917 and 90.5943 and 93.2148 | FP assay result (normalised FP signal) (LC3C; log10 concentration [M] -7): 99.2045 and 96.9584 and 97.5199 and 97.8942 | FP assay result (normalised FP signal) (LC3C; log10 concentration [M] -7.5): 99.9532 and 98.8301 and 99.3917 and 101.825 | FP assay result (normalised FP signal) (LC3C; log10 concentration [M] -8): 96.2096 and 99.0173 and 101.263 and 99.2045 | FP assay result (normalised FP signal) (LC3C; log10 concentration [M] -8.5): 94.3379 and 96.2096 and 95.0866 and 96.0225 | FP assay result (normalised FP signal) (GABARAPL2; log10 concentration [M] -3.5): 15.4589 and 21.9002 and 32.8502 and 25.1208 | FP assay result (normalised FP signal) (GABARAPL2; log10 concentration [M] -4): 44.4444 and 43.8003 and 53.7842 and 57.0048 | FP assay result (normalised FP signal) (GABARAPL2; log10 concentration [M] -4.5): 73.752 and 73.1079 and 75.0403 and 77.2947 | FP assay result (normalised FP signal) (GABARAPL2; log10 concentration [M] -5): 94.686 and 90.8213 and 95.0081 and 104.992 | FP assay result (normalised FP signal) (GABARAPL2; log10 concentration [M] -5.5): 97.2625 and 94.0419 and 105.958 and 102.093 | FP assay result (normalised FP signal) (GABARAPL2; log10 concentration [M] -6): 96.2963 and 93.0757 and 104.026 and 99.5169 | FP assay result (normalised FP signal) (GABARAPL2; log10 concentration [M] -6.5): 86.9565 and 89.8551 and 99.1948 and 93.0757 | FP assay result (normalised FP signal) (GABARAPL2; log10 concentration [M] -7): 90.4992 and 100.483 and 104.992 and 96.9404 | FP assay result (normalised FP signal) (GABARAPL2; log10 concentration [M] -7.5): 99.839 and 95.9742 and 100.161 and 104.026 | FP assay result (normalised FP signal) (GABARAPL2; log10 concentration [M] -8): 94.686 and 94.3639 and 101.127 and 98.5507 | FP assay result (normalised FP signal) (GABARAPL2; log10 concentration [M] -8.5): 91.4654 and 99.5169 and 96.2963 and 101.127
